{
  "source": "patent US12364722B2",
  "about": "“Multifunctional lactobacillus capable of relieving PFOA toxic effects and application thereof” (priority 2019, dated 2025)",
  "tested_on": "mice with constipation",
  "assay": "Loperamide constipation model: fecal water content and first black stool defecation time",
  "type": "in vivo, BALB/c mice",
  "conditions": "loperamide 10 mg/kgBW constipation, vs model group",
  "source_text": "40 SPF male BALB/c mice (20-25 g) were randomly divided into 5 groups: a blank control group, a constipation model control group, a Lactobacillus fermentum CCFM1051 intervention group, a Lactobacillus plantarum control group and a phenolphthalein treatment group with 10 mice in each group. The freeze-dried Lactobacillus fermentum CCFM1051 powder was resuspended in skim milk powder to prepare a bacterial suspension with a concentration of 4.0×10^9 CFU/mL. […] The fecal water content was calculated by using the following formula: Fecal water content (%)=(wet weight of feces−dry weight of feces)/wet weight of feces×100. On the morning of the 17th day, the mice in the blank control group were gavaged with normal saline, the mice in the other groups were gavaged with loperamide, after the gavage for 1 h, all the mice were gavaged with 0.25 mL of an activated carbon arabic gum aqueous solution, each mouse was separately placed in a clean stainless steel cage covered with absorbent paper, time (min) from start of the gavage with the activated carbon to defecation of first black stool was recorded as first black stool defecation time to evaluate an effect of the Lactobacillus fermentum CCFM1051 on constipation of the mice, and during the period, the mice ate and drank freely.",
  "data": [
    {"molecule": "O=C1OC(c2ccc(O)cc2)(c2ccc(O)cc2)c2ccccc21", "note": "[phenolphthalein]", "values": [
      {"measurement": "first black stool defecation time", "setting": "activated carbon gavage", "result": "significantly shortened"},
      {"measurement": "fecal water content", "result": "extremely significantly increased"}
    ]}
  ]
}
